Test results: patent US4585777A, “(-)-Trans-4-(4-fluorophenyl)-3-(4-methoxyphenoxy)methylpiperidine for potentiating 5-HT” (A/S Ferrosan, priority 1984, dated 1986)

Key:
[1] = tested on: mice; test: in vivo; details: for FG 7080 is better by: T.I. Factor: factor by which FG 7080 is better than the listed compound; for FG 7080 is better by: T.I. %: percent by which FG 7080 is better than the listed compound; for TI (Therapeutic Index), 001/173: LD50/ED50, mice s.c.
From the text: (§1) (J. Buus Lassen, European Journal of Pharmacology 47, 351-358 (1978)). See also Squires in Acta Pharmacol. et Toxicol, 1972, 31 Suppl. 1,35 for a description of a further procedure for measurement of the same 5-HT uptake-inhibitory phenomenon.

[2] = in vivo; details: mouse, in vivo, sc, TI (Therapeutic Index), 001/173, LD50/ED50, mice s.c.
From the text: as §1

[3] = Acute Toxicity in Mice (Procedure/Test 001); format: in vivo; details: mouse, in vivo, sc, lethality at 24 hours, water-soluble salt
From the text: (§2) II. Acute Toxicity in Mice (Procedure 001)
(§3) Results are expressed as LD50 = . . . mg/kg s.c.

[4] = tested on: 5-HT uptake; test: Potentiation of 5-HTP (5-Hydroxytryptophane) induced hypermotility in mice (Procedure/Test 173); 5-HT potentiation or 5-HT uptake-inhibition; format: in vivo, mice (female, NMRI strain); details: for ED (2-fold activity of controls): Mus musculus, sc, read-out: Test 173: dose increasing the activity to double the activity of controls receiving 5-HTP alone (ED), mice, s.c.; for FG 7080 is better by: 5-HT Potentiation Factor: factor by which FG 7080 is better than the listed compound; for FG 7080 is better by: 5-HT Potentiation %: percent by which FG 7080 is better than the listed compound
From the text: as §1
I. Potentiation of 5-HTP (5-Hydroxytryptophane) induced hypermotility in mice (Procedure 173)
(§4) This behavior is characterized by continuous jerky locomotion, head movements from side to side, abduction of the hind limbs, tremor, and lordosis.
Measurement of the motility after administration of test drugs to 5-HTP-pretreated mice is therefore used as a test for 5-HT-potentiation, which most probably proceeds through an inhibition of 5-HT uptake.
Method: Female mice of the NMRI strain weighing 20-22 g are used. The controls receive 5-HTP 150 mg/kg (15 ml/kg) i.p. (i.p.=intraperitoneally) and thirty (30) minutes later physiological saline (20 ml/kg) s.c. (s.c.=subcutaneously). The motility is measured by an Animex™ motimeter 45-75 minutes after 5-HTP administration. The test animals received test substances s.c. (20 ml/kg) instead of physiological saline. Five groups of two (2) mice are used for control and per dose of each test drug. the test substance is dosed according to the dose scale 1, 1.6, 2.5, 4, 6.3, and 10 mg/kg etc.
The best straight line is fitted through the points in a coordinate system (abscissa log dose, ordinate log activity). […] The activity of controls is investigated in thirty (30) groups of two (2) mice.

[5] = tested on: mice; details: Reference 6; cited from earlier work
[6] = tested on: mice; test: Acute Toxicity in Mice (Procedure/Test 001); format: in vivo; details: s.c., lethality at 24 hours, water-soluble salt, 1440 min
From the text: as §2, §3

[7] = tested on: mice; test: Locomotor activity / behavior in mice after 5-HTP, with or without pretreatment (background of Procedure 173); format: in vivo
From the text: as §4
Therefore, increased 5-HT in brain seems to be necessary for development of the abnormal behavior, but catecholamine release is probably not related to hyperactivity.

[8] = References 1-4, cited from earlier work
[9] = 5-HTP 150 mg/kg i.p. 30 min before, motility 45-75 min after 5-HTP, water-soluble salt
[10] = versus (+) trans isomer FG 8035

For `COc1ccc(OC[C@@H]2CN(C)CC[C@H]2c2ccc(F)cc2)cc1` (relative stereo) [FG 98-I], the “FG 7080 is better by: T.I. Factor” value [1] was 2.17, the “FG 7080 is better by: T.I. %” value [1] was 217% and the selectivity ratio [2] was 461. For the same molecule, the LD50 at 24 h [3] was 600 mg/kg, the ED (2-fold activity of controls) [4, 9] was 1.3 mg/kg and the “FG 7080 is better by: 5-HT Potentiation Factor” value [4] was 1.3. For the same molecule, the “FG 7080 is better by: 5-HT Potentiation %” value [4] was 130%.

In the case of `COc1ccc(OC[C@@H]2CNCC[C@H]2c2ccc(F)cc2)cc1` (single isomer, unassigned) [FG 7080, (-)-trans-4-(4-fluorophenyl)-3-(4-methoxyphenoxy)methylpiperidine], the “TI (Therapeutic Index), 001/173” value [1] is reported as 1000, the “Therapeutic Index compared with most structurally closely-related compounds, in words” value ([1]; Table I comparison) is reported as “even more remarkably and unpredictably superior” and the “superior as to Therapeutic Index, as %” value ([1]; versus FG 4996) is reported as over 7100%. For the same molecule, the “superior by a factor as to Therapeutic Index” value ([1]; versus FG 4996) was “greater than 71 times”, the “Therapeutic Index, as %” value ([1]; versus FG 7006) was over 5500% and the “Therapeutic Index, times as great” value ([1]; versus FG 7006) was “more than 55 times”. For the same molecule, the “Therapeutic Index, as %” value ([1]; versus FG 8035) was over 4100%, the “Therapeutic Index, times as great” value ([1]; versus FG 8035) was “more than 41 times” and the LD50 at 24 h [3] was 1000 mg/kg. The ED (2-fold activity of controls) [4, 9] was 1 mg/kg, the “5-HT potentiation compared with most structurally closely-related compounds, in words” value ([4]; Table I comparison) was “remarkably and unpredictably superior” and the “times as active in 5-HT potentiation” value [4, 10] was “approximately 22 times”. The “times as active in 5-HT potentiation, as %” value [4, 10] was about 2200%, the “superior as to 5-HT potentiation, as %” value ([4]; versus FG 4996) was about 900% and the “superior by a factor as to 5-HT potentiation” value ([4]; versus FG 4996) was “approximately 9 times”. For the same molecule, the “5-HT potentiation activity, as %” value ([4]; versus FG 7006) was about 2000% and the “5-HT potentiation activity, times as great” value ([4]; versus FG 7006) was “approximately 20 times”.

For `NNCc1cccc(O)c1` [3-hydroxybenzylhydrazine], the “effect of pretreatment on the hyperactivity (5-HTP plus 5-HT-uptake blocker)” value [5] is listed as “inhibited it significantly”.

For `COc1ccc(OC[C@@H]2CNCC[C@H]2c2ccccc2)cc1` (single isomer, unassigned) [FG 4996, reference compound], the selectivity ratio [2] was 14, the “Test 001: LD50” value [6] was 125 mg/kg and the ED (2-fold activity of controls) [4, 9] was 9 mg/kg.

For `N[C@@H](Cc1c[nH]c2ccc(O)cc12)C(=O)O` [5-HTP, 5-Hydroxytryptophane], the “motility / locomotor activity” value ([7]; 5-HTP 150 mg/kg) is given as “producing a small decrease of motility”, the “motility / locomotor activity” value ([7]; 5-HTP 600 mg/kg) is given as “increasing the activity” and the “concentration of NA and DA” value ([8]; high doses, parenteral) is given as “decrease the concentration of NA and DA”. For the same molecule, the “brain concentration of 5-HT” value ([8]; parenteral treatment) was “increases the brain concentration of 5-HT”.

For `COc1ccc(OC[C@@H]2CN(C)CC[C@H]2c2ccc(F)cc2)cc1.Cl` (single isomer, unassigned) [FG 8032, (+)-trans-4-(4-fluorophenyl)-3-[(4-methoxyphenoxy)methyl]-1-methylpiperidine hydrochloride], the “TI (Therapeutic Index), 001/173” value [1] was 17, the “FG 7080 is better by: T.I. Factor” value [1] was 58.82 and the “FG 7080 is better by: T.I. %” value [1] was 5882%. The LD50 at 24 h [3] was 400 mg/kg, the ED (2-fold activity of controls) [4, 9] was 23 mg/kg and the “FG 7080 is better by: 5-HT Potentiation Factor” value [4] was 23. For the same molecule, the “FG 7080 is better by: 5-HT Potentiation %” value [4] was 2300%.

Molecule `Fc1ccc([C@@H]2CCNC[C@H]2COc2ccc3c(c2)OCO3)cc1` (single isomer, unassigned) [FG 7051] has an LD50 at 24 h [3] of 285 mg/kg.

In the case of `COc1ccc(OC[C@@H]2CN(C)CC[C@H]2c2ccc(F)cc2)cc1` (single isomer, unassigned) [FG 8033, (-)-trans-4-(4-fluorophenyl)-3-[(4-methoxyphenoxy)-methyl]-1-methyl-piperidine], the “TI (Therapeutic Index), 001/173” value [1] is reported as 800, the LD50 at 24 h [3] is reported as 400 mg/kg and the ED (2-fold activity of controls) [4, 9] is reported as 0.5 mg/kg.

With `COc1ccc(OC[C@@H]2CN(C)CC[C@H]2c2ccccc2)cc1` (single isomer, unassigned) [FG 4962, reference compound] the “TI (Therapeutic Index), 001/173” value [1] was 53, the “FG 7080 is better by: T.I. Factor” value [1] was 19.87 and the “FG 7080 is better by: T.I. %” value [1] was 1887%. For the same molecule, the “Test 001: LD50” value [6] was 200 mg/kg, the “FG 7080 is better by: 5-HT Potentiation Factor” value [4] was 3.8 and the “Test 173: dose increasing the activity to double the activity of controls receiving 5-HTP alone (ED)” value ([4]; mice, s.c., 5-HTP 150 mg/kg i.p. 30 min before, motility 45-75 min after 5-HTP, water-soluble salt) was 3.8 mg/kg. For the same molecule, the “FG 7080 is better by: 5-HT Potentiation %” value [4] was 380%.

For `COc1ccc(OC[C@@H]2CN(C)CC[C@H]2c2ccccc2)cc1` (single isomer, unassigned) [FG 4963, reference compound], the “TI (Therapeutic Index), 001/173” value [1] was 134, the “FG 7080 is better by: T.I. Factor” value [1] was 7.46 and the “FG 7080 is better by: T.I. %” value [1] was 746%. The LD50 at 24 h [3] was 375 mg/kg, the ED (2-fold activity of controls) [4, 9] was 2.8 mg/kg and the “FG 7080 is better by: 5-HT Potentiation Factor” value [4] was 2.8. The “FG 7080 is better by: 5-HT Potentiation %” value [4] was 280%.

In the case of `CC(N)(Cc1ccc(O)cc1)C(=O)O` (stereo not drawn) [α-methyl-p-tyrosine], the “effect of pretreatment on the hyperactivity (5-HTP plus 5-HT-uptake blocker)” value [5] is listed as “does not influence this hyperactivity”.

With `COc1ccc(OC[C@@H]2CN(C)CC[C@H]2c2ccccc2)cc1` (relative stereo) [FG 4932, reference compound] the selectivity ratio [2] was 13, the LD50 at 24 h [3] was 100 mg/kg and the ED (2-fold activity of controls) [4, 9] was 7.7 mg/kg.

For `CC(=O)O.COc1ccc(OC[C@@H]2CNCC[C@H]2c2ccc(F)cc2)cc1` (single isomer, unassigned) [FG 8035, (+)-trans-4-(4-fluorophenyl)-3-((4-methoxyphenoxy)methyl)piperidine acetate], the “TI (Therapeutic Index), 001/173” value [1] was 24, the LD50 at 24 h [3] was 530 mg/kg and the ED (2-fold activity of controls) [4, 9] was 22 mg/kg.

`CN1CC[C@@H](c2ccc(F)cc2)[C@H](COc2ccc3c(c2)OCO3)C1` (single isomer, unassigned) [FG 7043, reference compound] gave a selectivity ratio [2] of 63, an LD50 at 24 h [3] of 250 mg/kg and an ED (2-fold activity of controls) [4, 9] of 4 mg/kg.
